Measurements from patent publication US6034246A, “2-arylbenzazole compounds” (Cancer Research Campaign Technology Limited, priority 1995, dated 2000).

Columns and labels:
MDA 468 = assay: in vitro inhibitory activity against human breast tumour cell line MDA 468 (Table 4); format: cell-based; settings: initial seeding density 2.5 × 10^2 cells/well
Excerpt: (§1) Tables 1 to 4 at the end of the present description show in vitro test results obtained in various sets of experiments for the cytotoxic activity of several of the benzazole compounds concerned, including also for reference results for the compound CJM 126 and comparative results for compound DF129, when tested against a range of tumor cell lines which includes ovarian, lung and certain colon and renal cancer cells from the National Cancer Institute (USA) collection. As usual the results are expressed in terms of IS50 values (concentration or dosage required to reduce cell growth or proliferation by 50%) calculated from dose-effect curves plotted for cultures of the cells in question.
(§2) In carrying out the in vitro studies, the cytotoxicity assays may be carried out by a method corresponding substantially to the following example:
(§3) Cells were maintained in a continuous logarithmic culture in Dublecco's medium supplemented with 10% fetal calf serum and penicillin (100 IU/ml) and streptomycin ([…]). The cells were mildly trypsinized for passage and for use in assays. On day zero, 100 μl of trypsinized tumor cells (1×10^4 /ml) were plated in the wells of 96-well flat-bottom microtiter plates. The plates were incubated for 2 days at 37° C. and 5% CO2 in air to allow the cells to adhere and resume exponential growth prior to the addition of drugs.
(§4) On day two 50 μl of the highest drug concentration was added to the wells of column 12 and from there serially diluted 3-fold to column 1 by serial transfer of 50 μl using an 8-channel micropipette. The final volume of column 1 was adjusted to 100 μl. No additions were made to the wells of rows A and B, which served as controls. The plates were further incubated for 5 days at 37° C. and 5% CO2 in air. Each compound was tested in duplicate.
(§5) On day 7 the test was terminated by the addition of 100 μl saline containing 0.002% w/v propidium iodide (Sigma), 0.3% drawing ink (Staedtler "Marsmatic 745"--Trade Mark) and 0.5% Triton X-100. The plates were kept at 4° C. overnight before reading on an inverted microscope equipped with an automated scanning stage. Fluorescence intensity was measured in arbitrary units by a photomultiplier. An HP-87 computer controlled the movement of the stage and also collected and processed the data from the multiplier.
(§6) For each compound tested a dose-response curve was obtained and the IC50 value (the drug concentration at 50% inhibition of cell growth) was calculated.
*Initial seeding density 2.5 × 10^2 cells/well

[1] = tested on: human breast cancer cell lines; assay: in vitro inhibition of human breast cancer cell lines; format: cell-based; settings: words, Table 4
Excerpt: as §1, §2, §3, §4, §5, §6

L88 = assay: in vitro inhibition of growth of human lung cancer cell line L88 (Table 1); format: cell-based
Excerpt: as §1, §2, §3
as §4, with “The plates were further incubated for 5 days at 37° C. and 5% CO2 in air. Each compound was tested in duplicate.” left out
as §5, with “An HP-87 computer controlled the movement of the stage and also collected and processed the data from the multiplier.” left out

Prostatic PC3 MAZ = assay: in vitro inhibitory activity against human prostatic cell line PC3 MAZ (Table 3); format: cell-based
Excerpt: as §1
(§7) In carrying out the in vitro studies, the cytotoxicity assays may be carried out by a method corresponding substantially to the following example: […]
as §5, with “An HP-87 computer controlled the movement of the stage and also collected and processed the data from the multiplier.” left out

Colon HCC-2998 = assay: in vitro inhibitory activity against human colon cell line HCC-2998 (Table 3); format: cell-based
Excerpt: as §1, §7
as §5, with “An HP-87 computer controlled the movement of the stage and also collected and processed the data from the multiplier.” left out

MOR/CPR = assay: in vitro inhibition of growth of human lung cancer cell line MOR/CPR (Table 1); format: cell-based; settings: for IC50: Homo sapiens, MOR/CPR (cisplatin resistant line); for activity against MOR/CPR relative to MOR/P and MOR/R: words, Table 1
Excerpt: as §1, §2, §3, §4, §5, §6

L23/R = assay: in vitro inhibition of growth of human lung cancer cell line L23/R (Table 1); format: cell-based
Excerpt: as §1, §2, §3, §4, §5, §6

H69/P = assay: in vitro inhibition of growth of human lung cancer cell line H69/P (Table 1); format: cell-based
Excerpt: as §1, §2, §3, §4, §5, §6

MCF-7 = assay: in vivo antitumor test, human breast carcinoma MCF-7 xenotransplanted in nude mice; settings: for evaluation / RTV, relative tumor volume (T/C %): qd 12, 19, 26; for RTV, relative tumor volume (T/C %): marked * significant versus control
Procedure: (§8) In one typical set of experiments, four human breast carcinomas xenotransplanted into female Ncr: nu/nu (Taconic, Germantown, U.S.A.) or male Bom: NMRI-nu/nu mice (Bomholtgaard, Ry, Denmark) were used for the evaluation of antitumor activity. Mice weighing 20-25 g at the start of experiments were held under sterile conditions at 24-26° C., 50% relative humidity and 12 hours light-dark rhythm in laminar flow shelves. The animals received autoclaved food and bedding; the drinking water was filtered and acidified (pH4.0).
(§9) The following breast carcinoma cell lines were used: BO; MCF-7 (NCI, U.S.A.); MT-1 and MT-3. The tumors BO and MCF-7 are ER^+ models: the carcinomas MT-1 and MT-3 are ER^- ones. Tumors were transplanted subcutaneously (s.c.) as pieces (2×2 mm) into the left flank of 5-8 nude mice/experimental group. Drug treatment was initiated when the tumors reached a diameter of 4-5 mm. Compounds were solubized with Tween 80 (maximum 10% of final volume) and suspended in saline. Suspensions were preparted freshly for each drug administration and injected in a volume of 0.2 mL/20 g body weight employing a once-weekly schedule (x3). Tumor size was measured twice weekly with a caliper. Median tumor volume/group was related to the first treatment day and expressed as Relative Tumor Volume (RTV). For the estimation of toxicity, body weight was determined twice weekly and the mean percentage body weight change (BCC) was calculated. In one experiment blood was obtained from the retroorbital venous plexus of mice and blood cells were determined with a Coulter counter (Model T41).
Some of the in vivo test results are shown in Tables 5 and 6 at the end of the present description, and in FIG. 1 of the accompanying drawing which illustrates the results for measurements of in vivo activity of 2-(4'-amino-3'-methylphenyl) benzothiazole (DF203) against MCF7 in nude mice administered on days 12, 19 and 26.

[2] = tested on: xenotransplanted breast carcinomas; assay: in vivo activity in panel of xenotransplanted breast carcinomas; set-up: species or system human (xenotransplanted in nude mice); settings: words; DF203 panel of four, DF129 two carcinomas
Procedure: as §8
as §9, with “Compounds were solubized with Tween 80 (maximum 10% of final volume) and suspended in saline. Suspensions were preparted freshly for each drug administration and injected in a volume of 0.2 mL/20 g body weight employing a once-weekly schedule (x3).” left out

NCI HOP-92 = assay: in vitro inhibition of growth of human lung cancer cell line NCI HOP-92 (Table 1); format: cell-based
Excerpt: as §1, §7
as §5, with “An HP-87 computer controlled the movement of the stage and also collected and processed the data from the multiplier.” left out

OVCAR-3 = assay: in vitro activity against human ovarian cell line OVCAR-3 (Table 2); format: cell-based
Excerpt: as §1, §7
as §5, with “An HP-87 computer controlled the movement of the stage and also collected and processed the data from the multiplier.” left out

IGR-OV1 = assay: in vitro activity against human ovarian cell line IGR-OV1 (Table 2); format: cell-based; settings: IGROV-1
Excerpt: as §1, §7
as §5, with “An HP-87 computer controlled the movement of the stage and also collected and processed the data from the multiplier.” left out

OVCAR-8 = assay: in vitro activity against human ovarian cell line OVCAR-8 (Table 2); format: cell-based
Excerpt: as §1, §7
as §5, with “An HP-87 computer controlled the movement of the stage and also collected and processed the data from the multiplier.” left out

OVCAR-4 = assay: in vitro activity against human ovarian cell line OVCAR-4 (Table 2); format: cell-based
Excerpt: as §1, §7
as §5, with “An HP-87 computer controlled the movement of the stage and also collected and processed the data from the multiplier.” left out

MOR/R = assay: in vitro inhibition of growth of human lung cancer cell line MOR/R (Table 1); format: cell-based; settings: MOR/R (multidrug resistant line)
Excerpt: as §1, §2, §3, §4, §5, §6

A2780 = assay: in vitro activity against human ovarian cell line A2780 (Table 2); format: cell-based; settings: Homo sapiens; A2780 (parental line)
Excerpt: As usual the results are expressed in terms of IS50 values (concentration or dosage required to reduce cell growth or proliferation by 50%) calculated from dose-effect curves plotted for cultures of the cells in question.
as §2, §3, §4
The plates were kept at 4° C. overnight before reading on an inverted microscope equipped with an automated scanning stage. Fluorescence intensity was measured in arbitrary units by a photomultiplier. An HP-87 computer controlled the movement of the stage and also collected and processed the data from the multiplier.

Renal ACHN = assay: in vitro inhibitory activity against human renal cell line ACHN (Table 3); format: cell-based
Excerpt: as §1, §7
as §5, with “An HP-87 computer controlled the movement of the stage and also collected and processed the data from the multiplier.” left out

MCF-7B = assay: in vitro inhibitory activity against human breast tumour cell line MCF-7B (Table 4); format: cell-based; settings: initial seeding density 2.5 × 10^2 cells/well
Excerpt: as §1, §2, §3
as §4, with “The plates were further incubated for 5 days at 37° C. and 5% CO2 in air. Each compound was tested in duplicate.” left out
as §5, with “An HP-87 computer controlled the movement of the stage and also collected and processed the data from the multiplier.” left out

[3] = MCF-7, optimum dose 200 mg/Kg/inj i.p.
[4] = MCF-7, optimum dose 12.5 mg/Kg/inj i.p.

SMILES	IC50 (MDA 468)	potency against breast cancer cells relative to CJM 126 [1]	IC50 (L88)	IC50 (Prostatic PC3 MAZ)	IC50 (Colon HCC-2998)	IC50 (MOR/CPR)	activity against MOR/CPR relative to MOR/P and MOR/R (MOR/CPR)	IC50 (L23/R)	IC50 (H69/P)	in vivo activity in xenotransplanted breast carcinomas [2]	IC50 (IGR-OV1)	IC50 (OVCAR-8)	IC50 (OVCAR-4)	IC50 (MOR/R)	IC50 (A2780)	IC50 (Renal ACHN)	other results
Nc1ccc(-c2nc3ccccc3s2)cc1I [DF129, 2-(4'-amino-3'-iodophenyl)benzothiazole]	< 1 nM	more potent than even the compound CJM 126	50 nM	54000 nM	< 1000 nM	25 nM	more active against the MOR/CPR line than against the two other lines	> 10000 nM	> 10000 nM	only borderline activity in one of the models	< 100 nM	> 100000 nM	200 nM	100 nM	> 100000 nM	> 100000 nM	evaluation (MCF-7; [3]): (+) (T/C % ≥ 51%); RTV, relative tumor volume (T/C %) (MCF-7; [3]): 68%; IC50 (NCI HOP-92): < 10 nM; IC50 (OVCAR-3): 600 nM
Cc1cc(-c2nc3ccccc3s2)ccc1N [DF203, 2-(4'-amino-3'-methylphenyl)benzothiazole]	< 1 nM	more potent than even the compound CJM 126	6000 nM	> 100000 nM	< 1000 nM	40 nM	more active against the MOR/CPR line than against the two other lines	> 10000 nM	> 10000 nM	consistent tumor growth inhibition in all four tumors	< 100 nM	> 100000 nM	< 1000 nM	70 nM	> 100000 nM	~100000 nM	evaluation (MCF-7; [4]): ++ (T/C = 21-35%); RTV, relative tumor volume (T/C %) (MCF-7; [4]): 31%; tumor status of surviving animal (MCF-7; top dose 25 mg/Kg): tumor free; IC50 (MCF-7B): 10 nM
